Values of other authors in patent publication US5281578A, “Gallium compounds” (Johnson Matthey Public Limited Company, priority 1992, dated 1994).
Read-outs that look alike come from different tables or passages of the source.

How the values were obtained:
[1] = pH 4.5-7

Structure (SMILES)	absorption from the gastro-intestinal tract [1]	renal toxicity (renal toxicity; iv bolus)	renal toxicity (renal toxicity; seven day continuous iv infusion, cancer-associated hypercalcemia)
[Ga+3] [gallium(III) aquo-ion]	very poorly absorbed		
[Ga] [gallium]		dose-limiting	no renal toxicity
